pEC50: −log10 of the molar value. Several values for one entry are separate records, joined by “and”; a condition that tells them apart may be missing. Equal entries are not always repeated. Where two headings read alike, the source gives them in different places.
Assays:
mGluR2 [1] = biological target: mGluR2 (Mus musculus, UniProt Q14BI2, A548F); assay: Live-cell FRET, azi-CRD (cysteine-rich domain) sensor in HEK293T cells; conditions: for Normalized FRET response, Mean (azi-CRD agonist DRC): maximal responses normalized to 1mM glutamate
mGluR2 [2] = biological target: T1, mGluR2 (Mus musculus, UniProt Q14BI2); assay: Live-cell FRET, SNAP-m2 (VFT domain) inter-subunit sensor in HEK293T cells; conditions: for Normalized FRET response, Mean (SNAP-m2 agonist DRC): maximal responses normalized to 1mM glutamate;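 on all read-outs here: apparent FRET efficiency from whole-membrane ROIs of single cells, corrected for donor bleed-through and background, ΔFRET as treatment minus pretreatment signal, recorded at room temperature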
mGluR2 [3] = biological target: T1, mGluR2; assay: Functional calcium imaging, SNAP-mGluR2 (no FLAG-tag) with chimeric G protein Gqo5 in HEK293T cells; type: cell-based; design: Full length mGluR2 construct with an amber codon (TAG) mutation of amino acid A548 (azi-CRD) or N-terminal SNAP-tag (SNAP-mGluR2); host or cells: HEK293T; conditions: for Intracellular Ca2+ response, Mean / Intracellular Ca2+ response: normalized to 1mM glutamate; for Intracellular Ca2+ response: single experiments
mGluR2 [4] = biological target: mGluR2 (Mus musculus, UniProt Q14BI2, INS715F); assay: Live-cell FRET, azi-ECL2 (7TM domain, extracellular loop 2) sensor in HEK293T cells;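 further: Cy3/Cy5 click-labeled sensor, whole-membrane ROIs per cell, apparent FRET after bleed-through correction, ΔFRET as treatment minus pre-treatment signal, at room temperature, at least three biological replicates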
Chain of mGluR2 (Mus musculus, UniProt Q14BI2, INS715F) (Q14BI2 with tags, fused parts or gaps INS715F): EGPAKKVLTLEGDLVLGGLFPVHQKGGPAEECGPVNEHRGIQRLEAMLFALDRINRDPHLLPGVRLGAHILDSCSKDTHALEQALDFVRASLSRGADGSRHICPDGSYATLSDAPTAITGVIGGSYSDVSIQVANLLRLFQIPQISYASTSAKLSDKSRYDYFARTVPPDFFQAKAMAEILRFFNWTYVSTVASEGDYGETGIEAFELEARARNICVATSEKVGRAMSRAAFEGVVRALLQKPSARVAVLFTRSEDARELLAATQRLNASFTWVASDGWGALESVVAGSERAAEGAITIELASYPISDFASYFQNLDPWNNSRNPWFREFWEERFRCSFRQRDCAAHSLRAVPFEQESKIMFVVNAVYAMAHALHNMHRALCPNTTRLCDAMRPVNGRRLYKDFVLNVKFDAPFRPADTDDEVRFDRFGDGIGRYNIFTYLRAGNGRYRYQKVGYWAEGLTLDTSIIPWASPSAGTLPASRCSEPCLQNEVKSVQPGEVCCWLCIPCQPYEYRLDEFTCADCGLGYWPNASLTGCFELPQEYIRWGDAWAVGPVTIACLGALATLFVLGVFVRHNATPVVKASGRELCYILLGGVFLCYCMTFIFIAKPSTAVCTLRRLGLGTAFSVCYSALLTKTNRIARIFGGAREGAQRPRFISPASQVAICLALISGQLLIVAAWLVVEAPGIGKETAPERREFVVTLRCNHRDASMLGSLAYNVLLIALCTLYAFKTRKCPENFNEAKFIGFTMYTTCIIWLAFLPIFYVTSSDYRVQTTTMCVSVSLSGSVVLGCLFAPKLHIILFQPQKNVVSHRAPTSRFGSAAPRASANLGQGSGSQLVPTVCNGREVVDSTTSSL

T1 sequence (Q14BI2 19-872): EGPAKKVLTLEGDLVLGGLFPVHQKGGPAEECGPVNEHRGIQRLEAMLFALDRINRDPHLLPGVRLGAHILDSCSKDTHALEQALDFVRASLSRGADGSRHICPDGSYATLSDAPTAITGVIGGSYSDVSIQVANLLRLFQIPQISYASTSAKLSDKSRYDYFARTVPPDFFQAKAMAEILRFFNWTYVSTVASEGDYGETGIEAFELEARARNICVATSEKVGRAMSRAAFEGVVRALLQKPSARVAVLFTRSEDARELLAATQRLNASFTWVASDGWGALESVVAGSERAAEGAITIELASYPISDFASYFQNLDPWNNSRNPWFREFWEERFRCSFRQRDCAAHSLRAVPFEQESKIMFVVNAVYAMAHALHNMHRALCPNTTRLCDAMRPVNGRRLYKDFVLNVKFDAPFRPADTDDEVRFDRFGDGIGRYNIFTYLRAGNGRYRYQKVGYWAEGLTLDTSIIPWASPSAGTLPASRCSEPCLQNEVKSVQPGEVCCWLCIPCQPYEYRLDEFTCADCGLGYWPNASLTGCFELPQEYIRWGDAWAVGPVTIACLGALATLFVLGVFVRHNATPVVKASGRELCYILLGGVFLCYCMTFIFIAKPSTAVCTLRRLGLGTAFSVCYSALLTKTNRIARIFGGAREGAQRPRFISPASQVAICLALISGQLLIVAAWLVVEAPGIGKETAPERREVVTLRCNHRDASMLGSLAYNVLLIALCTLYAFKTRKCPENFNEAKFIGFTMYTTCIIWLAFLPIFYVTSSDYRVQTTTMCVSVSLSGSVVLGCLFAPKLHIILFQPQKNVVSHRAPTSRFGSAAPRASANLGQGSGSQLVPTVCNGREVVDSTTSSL
Chain of mGluR2 (Mus musculus, UniProt Q14BI2, A548F) (Q14BI2 19-872 A548F): as the sequence (Q14BI2 19-872) above, with A530F counted along it

N[C@H](C(=O)O)C1[C@@H](C(=O)O)[C@@H]1C(=O)O (some centres unmarked) [DCG-IV]
efficacy relative to glutamate efficacy (mGluR2 [1]; CRD sensor): 69%
Hill slope (mGluR2 [1]; azi-CRD sensor, orthosteric agonist alone): 0.94
Live-cell FRET max response normalized to 1mM glutamate (mGluR2 [1]; azi-CRD sensor, DCG-IV, individual values (N=19)): 0.7559 and 0.727 and 0.7189 and 0.7035 and 0.632 and 0.6169 and 0.7378 and 0.6793 and 0.6073 and 0.6642 and 0.7117 and 0.7276 and 0.6566 and 0.7993 and 0.7099 and 0.6625 and 0.714 and 0.6368 and 0.7062
Mean max response (normalized max ΔFRET) (mGluR2 [1]; azi-CRD, agonist alone (1 mM glutamate, 100 μM DCG-IV, 20 μM LY379268, 100 μM APDC), normalized to 1 mM glutamate): 0.69
Normalized Max ΔFRET (mGluR2 [1]; azi-CRD, 100μM agonist, individual cells, normalized to 1mM glutamate): 66.2522 and 61.6858 and 73.7778 and 67.9245 and 60.7306 and 66.4234 and 71.1688 and 72.7619 and 65.6646 and 79.932 and 70.9877 and 71.4032 and 63.6793 and 70.615 and 75.5857 and 72.6994 and 71.8894 and 70.347 and 63.2035
Normalized Max ΔFRET, Mean (mGluR2 [1]; azi-CRD, 100μM agonist, mean of cells, normalized to 1mM glutamate): 69.3017
Normalized FRET response, Mean (azi-CRD agonist DRC) (mGluR2 [1]; log[ligand] (M) -4): 0.693
Normalized FRET response, Mean (azi-CRD agonist DRC) (mGluR2 [1]; log[ligand] (M) -4.1549): 0.638
Normalized FRET response, Mean (azi-CRD agonist DRC) (mGluR2 [1]; log[ligand] (M) -4.52288): 0.594
Normalized FRET response, Mean (azi-CRD agonist DRC) (mGluR2 [1]; log[ligand] (M) -5): 0.6438
Normalized FRET response, Mean (azi-CRD agonist DRC) (mGluR2 [1]; log[ligand] (M) -5.39794): 0.5492
Normalized FRET response, Mean (azi-CRD agonist DRC) (mGluR2 [1]; log[ligand] (M) -5.82391): 0.4312
Normalized FRET response, Mean (azi-CRD agonist DRC) (mGluR2 [1]; log[ligand] (M) -6): 0.3274
Normalized FRET response, Mean (azi-CRD agonist DRC) (mGluR2 [1]; log[ligand] (M) -6.52288): 0.164
Normalized FRET response, Mean (azi-CRD agonist DRC) (mGluR2 [1]; log[ligand] (M) -7): 0.06087
Normalized FRET response, Mean (azi-CRD agonist DRC) (mGluR2 [1]; log[ligand] (M) -8): 0
pEC50 (mGluR2 [1]; read-out: Live-cell FRET titration EC50, azi-CRD, agonist alone, individual experiments): 5.82 and 5.83 and 6.11 and 6.24 and 6.28 and 6.05 and 5.87 and 5.80 and 5.68
pEC50 (mGluR2 [1]; read-out: Mean half-maximum effective concentration (EC50), azi-CRD sensor, orthosteric agonist alone): 5.96
Mean max response (normalized max ΔFRET) (mGluR2 [2]; SNAP-m2 (VFT), agonist alone (1 mM glutamate, 100 μM DCG-IV, 20 μM LY379268, 100 μM APDC), normalized to 1 mM glutamate): 0.79
Normalized Max ΔFRET (mGluR2 [2]; SNAP-m2, 100μM agonist, individual cells, normalized to 1mM glutamate): 84.7663 and 70.8926 and 74.3888 and 73.8095 and 75.8105 and 75.3951 and 75.9881 and 74.211 and 74.4971 and 73.9262 and 75.3591 and 85.075 and 75.8448 and 76.6206 and 81.7136 and 78.0427 and 77.2768 and 74.1653 and 84.8254 and 80.7786 and 86.2145 and 83.3004 and 84.7137 and 86.1165 and 84.7264
Normalized Max ΔFRET, Mean (mGluR2 [2]; SNAP-m2, 100μM agonist, mean of cells, normalized to 1mM glutamate): 78.7384
Hill slope (mGluR2 [2]; SNAP-m2 sensor, orthosteric agonist alone): –1.26
Live-cell FRET max response normalized to 1mM glutamate (mGluR2 [2]; SNAP-m2 sensor, DCG-IV, individual values (N=25)): 0.8621 and 0.833 and 0.8471 and 0.8612 and 0.8473 and 0.7089 and 0.7439 and 0.7381 and 0.7581 and 0.754 and 0.7599 and 0.7421 and 0.745 and 0.7393 and 0.7536 and 0.7584 and 0.7662 and 0.8171 and 0.7804 and 0.7728 and 0.7417 and 0.8477 and 0.8508 and 0.8482 and 0.8078
efficacy relative to glutamate efficacy (mGluR2 [2]; VFT domain FRET sensor): 79%
Normalized FRET response, Mean (SNAP-m2 agonist DRC) (mGluR2 [2]; log[ligand] (M) -4): -0.7874
Normalized FRET response, Mean (SNAP-m2 agonist DRC) (mGluR2 [2]; log[ligand] (M) -4.52288): -0.8342
Normalized FRET response, Mean (SNAP-m2 agonist DRC) (mGluR2 [2]; log[ligand] (M) -5): -0.8388
Normalized FRET response, Mean (SNAP-m2 agonist DRC) (mGluR2 [2]; log[ligand] (M) -5.39794): -0.8023
Normalized FRET response, Mean (SNAP-m2 agonist DRC) (mGluR2 [2]; log[ligand] (M) -5.82391): -0.7016
Normalized FRET response, Mean (SNAP-m2 agonist DRC) (mGluR2 [2]; log[ligand] (M) -6.09691): -0.5309
Normalized FRET response, Mean (SNAP-m2 agonist DRC) (mGluR2 [2]; log[ligand] (M) -6.52288): -0.3457
Normalized FRET response, Mean (SNAP-m2 agonist DRC) (mGluR2 [2]; log[ligand] (M) -7): -0.1181
Normalized FRET response, Mean (SNAP-m2 agonist DRC) (mGluR2 [2]; log[ligand] (M) -7.30103): -0.04846
Normalized FRET response, Mean (SNAP-m2 agonist DRC) (mGluR2 [2]; log[ligand] (M) -7.69897): 0
pEC50 (mGluR2 [2]; read-out: Live-cell FRET titration EC50, SNAP-m2, agonist alone, individual experiments): 6.22 and 6.20 and 6.55 and 6.50 and 6.53 and 6.49
pEC50 (mGluR2 [2]; read-out: Mean half-maximum effective concentration (EC50), SNAP-m2 sensor, orthosteric agonist alone): 6.40
Normalized Max Intracellular Ca2+ Response, individual experiments (mGluR2 [3]; 100 μM DCG-IV, 10 μM LY379268, 300 μM APDC, normalized to 1 mM glutamate, single replicate): 0.684 and 0.6918 and 0.7087
Normalized Max Intracellular Ca2+ Response, mean (mGluR2 [3]; 1 mM Glu, 100 μM DCG-IV, 10 μM LY379268, 300 μM APDC, normalized to 1 mM glutamate): 0.6948
efficacy relative to glutamate efficacy (mGluR2 [3]; functional calcium imaging assay): 69%
Intracellular Ca2+ response, Mean (mGluR2 [3]; log[agonist] (M) -4): 0.6948
Intracellular Ca2+ response (mGluR2 [3]; log[agonist] (M) -4): 0.6948
Intracellular Ca2+ response, Mean (mGluR2 [3]; log[agonist] (M) -4.52288): 0.7042
Intracellular Ca2+ response (mGluR2 [3]; log[agonist] (M) -4.52288): 0.7332 and 0.6724 and 0.7069
Intracellular Ca2+ response, Mean (mGluR2 [3]; log[agonist] (M) -5): 0.632
Intracellular Ca2+ response (mGluR2 [3]; log[agonist] (M) -5): 0.631 and 0.6318 and 0.6332
Intracellular Ca2+ response, Mean (mGluR2 [3]; log[agonist] (M) -5.39794): 0.5754
Intracellular Ca2+ response (mGluR2 [3]; log[agonist] (M) -5.39794): 0.5417 and 0.5882 and 0.5962
Intracellular Ca2+ response, Mean (mGluR2 [3]; log[agonist] (M) -5.82391): 0.3655
Intracellular Ca2+ response (mGluR2 [3]; log[agonist] (M) -5.82391): 0.2777 and 0.362 and 0.4567
Intracellular Ca2+ response, Mean (mGluR2 [3]; log[agonist] (M) -6): 0.3093
Intracellular Ca2+ response (mGluR2 [3]; log[agonist] (M) -6): 0.2196 and 0.3072 and 0.4011
Intracellular Ca2+ response, Mean (mGluR2 [3]; log[agonist] (M) -6.52288): 0.06286
Intracellular Ca2+ response, Mean (mGluR2 [3]; log[agonist] (M) -7): 0
Intracellular Ca2+ response (mGluR2 [3]; log[agonist] (M) -7): 0
Intracellular Ca2+ response, Mean (mGluR2 [3]; log[agonist] (M) -8): 0
Intracellular Ca2+ response (mGluR2 [3]; log[agonist] (M) -8): 0
efficacy relative to glutamate efficacy (mGluR2 [4]; ECL2 sensor): 64%
Mean max response (normalized max ΔFRET) (mGluR2 [4]; azi-ECL2, agonist alone (1 mM glutamate, 100 μM DCG-IV, 20 μM LY379268, 100 μM APDC), normalized to 1 mM glutamate): 0.64
Normalized ΔFRET response, Mean (agonist DRC) (mGluR2 [4]; azi-ECL2, log[agonist] (M) -4, normalized to 1 mM glutamate): 0.6388
Normalized ΔFRET response, Mean (agonist DRC) (mGluR2 [4]; azi-ECL2, log[agonist] (M) -4.52288, normalized to 1 mM glutamate): 0.6117
Normalized ΔFRET response, Mean (agonist DRC) (mGluR2 [4]; azi-ECL2, log[agonist] (M) -5, normalized to 1 mM glutamate): 0.5883
Normalized ΔFRET response, Mean (agonist DRC) (mGluR2 [4]; azi-ECL2, log[agonist] (M) -5.39794, normalized to 1 mM glutamate): 0.5288
Normalized ΔFRET response, Mean (agonist DRC) (mGluR2 [4]; azi-ECL2, log[agonist] (M) -5.82391, normalized to 1 mM glutamate): 0.4325
Normalized ΔFRET response, Mean (agonist DRC) (mGluR2 [4]; azi-ECL2, log[agonist] (M) -6.09691, normalized to 1 mM glutamate): 0.3472
Normalized ΔFRET response, Mean (agonist DRC) (mGluR2 [4]; azi-ECL2, log[agonist] (M) -6.52288, normalized to 1 mM glutamate): 0.1978
Normalized ΔFRET response, Mean (agonist DRC) (mGluR2 [4]; azi-ECL2, log[agonist] (M) -7, normalized to 1 mM glutamate): 0.04555
Normalized ΔFRET response, Mean (agonist DRC) (mGluR2 [4]; azi-ECL2, log[agonist] (M) -7.30103, normalized to 1 mM glutamate): 0.01237
Normalized ΔFRET response, Mean (agonist DRC) (mGluR2 [4]; azi-ECL2, log[agonist] (M) -7.69897, normalized to 1 mM glutamate): 0
Normalized Max ΔFRET (mGluR2 [4]; azi-ECL2, 100μM agonist, individual cells, normalized to 1mM glutamate): 75.6239 and 62.1009 and 89.9691 and 84.6273 and 55.3373 and 55.3387 and 55.3355 and 62.696 and 49.3687 and 57.2855 and 56.6756 and 63.6013 and 56.6982 and 53.3737 and 53.7969 and 61.9848 and 59.9837 and 58.1516 and 63.6225 and 66.6797 and 61.402 and 83.697 and 67.4032 and 68.3214 and 74.0066
Normalized Max ΔFRET, Mean (mGluR2 [4]; azi-ECL2, 100μM agonist, mean of cells, normalized to 1mM glutamate): 63.8832
Hill slope (mGluR2 [4]; azi-ECL2 sensor, orthosteric agonist alone): 1.05
Live-cell FRET max response normalized to 1mM glutamate (mGluR2 [4]; azi-ECL2 sensor, DCG-IV, individual values (N=25)): 0.614 and 0.837 and 0.674 and 0.6832 and 0.7401 and 0.621 and 0.8997 and 0.8463 and 0.5534 (3×) and 0.627 and 0.4937 and 0.5728 and 0.5668 and 0.567 and 0.5337 and 0.538 and 0.6199 and 0.5998 and 0.5815 and 0.7562 and 0.636 and 0.6362 and 0.6668
pEC50 (mGluR2 [4]; read-out: EC50, live-cell FRET titration, azi-ECL2 sensor, DCG-IV, individual cell values (N=24)): 6.39 and 5.80 and 5.68 and 5.69 and 5.78 and 5.82 and 5.73 and 5.93 and 6.25 and 6.49 and 6.40 and 6.55 and 6.35 and 6.44 and 6.20 and 6.52 and 6.34 and 6.38 and 6.41
pEC50 (mGluR2 [4]; read-out: Mean half-maximum effective concentration (EC50), azi-ECL2 sensor, orthosteric agonist alone): 6.05

From publication PMC9299836 (eLife, 2022)
